{"source": "patent US4666897A", "about": "“Inhibition of mammalian collagenolytic enzymes by tetracyclines” (Research Foundation of State University, priority 1983, dated 1987)", "key": {"[1]": {"biological_target": "T1, rat PMNL collagenolytic activity (PMNL collagenase) (Rattus norvegicus, UniProt O88766)", "T1 construct": "An extract of PMNLs was prepared; from tissue; host or cells: extract of peritoneal exudate polymorphonuclear leucocytes of non-diabetic rats, elicited with glycogen", "T1 sequence (O88766 102-466)": "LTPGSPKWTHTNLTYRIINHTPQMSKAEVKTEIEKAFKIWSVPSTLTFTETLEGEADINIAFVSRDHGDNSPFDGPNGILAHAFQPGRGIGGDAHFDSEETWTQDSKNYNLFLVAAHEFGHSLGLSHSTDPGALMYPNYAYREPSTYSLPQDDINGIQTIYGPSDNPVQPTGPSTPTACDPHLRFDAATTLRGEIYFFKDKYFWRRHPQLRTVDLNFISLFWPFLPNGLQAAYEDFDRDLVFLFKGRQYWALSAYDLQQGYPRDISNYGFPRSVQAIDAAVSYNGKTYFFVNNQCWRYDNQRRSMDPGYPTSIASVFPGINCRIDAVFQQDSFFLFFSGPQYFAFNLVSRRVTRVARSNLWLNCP", "assay": "Rat PMNL collagenolytic activity in vitro (14C-collagen gel lysis)", "type": "biochemical", "conditions": "Table 2; PMNL extract (30 × 10^6 PMNLs per ml) + 20 ug/ml; control extract 39.0", "description": "To test the effect of physiologic levels of minocycline (the concentration in human serum, during a therapeutic regimen, is approximately 2 ug/ml; that in the gingival crevicular fluid is 4-5 times greater; Ciancio, et. al., 1980, J. Periodontol., 51, 531-534) on mammalian collagenolytic activity in vitro, peritonealexudate polymorphomuclear leucocytes (PMNLs) were collected from 15 mole (non-diabetic) rats 4 hours after I.P. injection of 0.15% glycogen. An extract of PMNLs was prepared, 250 μl aliquots of this extract were incubated with ^14 C-glycine labeled collagen fibrils for 14 hours at 35° C. (in the presence or absence of minocycline, or EDTA, or additional CaCl2), and collagenolytic activity was measured as described by Nicoll, et al., (Experientia., 37, 315-317).\nThe techniques used to measure the collagenolytic enzyme activity of gingival tissue in culture, and in polymorphonuclear leucocytes (PMNLs), are those described by Golub, et. al., (J. Dent. Res., 57, 520-525 (197)8) and Nicoll, et. al., (Experimentia, 37, 315-317, (1981)) with minor modifications."}, "[2]": {"system": "fetal rat bones (radii and ulnae) in organ culture", "assay": "PTH-induced bone resorption in organ culture (45calcium release)", "type": "cell-based", "description": "The technique used to assess bone resorption is based on monitoring the release of radioactive calcium, previously incorporated by embryonic bones in vivo, during organ culture. Pregnant Sprague-Dawley rats were injected subcutaneously with 200 μCi of ^45 calcium chloride on the 18th day of gestation. The following day, the animals were killed, the fetuses removed, and the radii and ulnae dissected under aseptic conditions. […] The bones were then randomly distributed and each bone, either a radius or ulna, was incubated in 0.5 ml of culture media alone or in a media containing parathyroid hormone (PTH: human synthetic 1-34 peptide, Beckman Instruments, Inc., Palo Alto, California) added in a final concentration of 1.0 μg/ml; the experimental bones were incubated in the PTH containing medium to which was added different concentrations (0.2-300 μg/ml) of the antibiotics to be tested. The bones were cultured for 5 days, with the media being changed after day 2, and the incubation terminated. The bones were decalcified in 0.2 ml of 5% trichloroacetic acid and the ^45 calcium content of the residual bones and of the culture media was measured as described previously. (Werner and Raisz, Endocrinology, 90, 752 (1972 ) and Gomes, et. al., Calc. Tiss. Res., 19, 285 (1976)). The ^45 calcium released into the media was calculated as a percentage of the total radioactive calcium measured in the bones."}, "[3]": {"system": "periodontal disease in dogs", "conditions": "dogs on long-term therapy; cited from earlier work"}, "[4]": {"system": "periodontal disease in patients", "conditions": "patients who did not respond to routine periodontal therapy; cited from earlier work"}, "rheumatoid arthritis": {"system": "rheumatoid arthritis", "conditions": "in vivo; cited from earlier work"}}, "data": [{"molecule": "CN(C)[C@@H]1C(=O)C(C(N)=O)=C(O)[C@@]2(O)C(=O)C3=C(O)c4c(O)cccc4[C@@](C)(O)[C@H]3C[C@@H]12", "note": "[tetracycline, Tetracycline]", "values": [{"measurement": "Collagenolytic Activity: % ^14 C-collagen gel lyzed", "setting": "[1]", "result": 2.0, "unit": "%"}, {"measurement": "^45 Calcium in Fetal Bone Released into Media (%) after 2 days incubation", "setting": "[2]; Table 4, first column, PTH + 0.2 μg/ml", "result": "58.4 ± 1.3", "unit": "%"}, {"measurement": "^45 Calcium in Fetal Bone Released into Media (%) after 2 days incubation", "setting": "[2]; Table 4, first column, PTH + 2.0 μg/ml", "result": "59.9 ± 1.5", "unit": "%"}, {"measurement": "^45 Calcium in Fetal Bone Released into Media (%) after 2 days incubation", "setting": "[2]; Table 4, first column, PTH + 20 μg/ml", "result": "45.0 ± 0.7", "unit": "%"}, {"measurement": "^45 Calcium in Fetal Bone Released into Media (%) after 2 days incubation", "setting": "[2]; Table 4, first column, PTH + 200 μg/ml", "result": "14.4 ± 0.4", "unit": "%"}, {"measurement": "^45 Calcium in Fetal Bone Released into Media (%) after 2 days incubation", "setting": "[2]; Table 4, second column, PTH + 0.2 μg/ml", "result": "93.0 ± 1.7", "unit": "%"}, {"measurement": "^45 Calcium in Fetal Bone Released into Media (%) after 2 days incubation", "setting": "[2]; Table 4, second column, PTH + 2.0 μg/ml", "result": "97.2 ± 0.8", "unit": "%"}, {"measurement": "^45 Calcium in Fetal Bone Released into Media (%) after 2 days incubation", "setting": "[2]; Table 4, second column, PTH + 20 μg/ml", "result": "69.4 ± 3.5", "unit": "%"}, {"measurement": "^45 Calcium in Fetal Bone Released into Media (%) after 2 days incubation", "setting": "[2]; Table 4, second column, PTH + 200 μg/ml", "result": "19.8 ± 0.5", "unit": "%"}, {"measurement": "effect on PTH-enhanced bone resorption, in words", "setting": "[2]; concentrations 0.2-300 μg/ml", "result": "inhibited bone resorption in a dose responsive manner"}, {"measurement": "periodontal disease", "setting": "[3]", "result": "significant improvement"}, {"measurement": "clinical benefit of long-term use", "setting": "[4]", "result": "clinically beneficial"}, {"measurement": "treatment of rheumatoid arthritis", "setting": "rheumatoid arthritis", "result": "effective"}]}]}
